Measured values taken from US10059717B2, “Urea compounds containing 3,4-dihydropyrimido[4,5-D]pyrimidin-2(1H)-one skeleton as protein kinase inhibitors” (KOREA INSTITUTE OF SCIENCE AND TECHNOLOGY, priority 2016, dated 2018).

Columns and labels:
Assay in all cases: Kinase panel biochemical assay
Conditions in all cases: 1 μM single concentration, read-out: % residual enzyme activity
[1] = molecular target: ACK1 (Homo sapiens, UniProt Q07912)
Description: (§1) In order to measure the protein kinase inhibitory activity (% inhibition) of the compounds of the present invention, biochemical assays were performed on the full kinase panel listed in the following Table 1.
(§2) As an test compound, 1-(3-(7-((6-(4-ethylpiperazine-1-carbonyl)pyridin-3-yl)amino)-1-methyl-2-oxo-1,4-dihydropyrimido[4,5-d]pyrimidin-3(2H)-yl)-4-methylphenyl)-3-(2-methoxyphenyl)urea (Compound No. 14) was used. The kinase inhibitory efficacy was measured upon treatment with a 1 μM single concentration of the test compound to calculate % residual enzyme activity value.
(§3) ABL1, FGFR2, TAOK2/TAO1, EPHA5, EPHB2, EPHB3, RET, LYN B, EPHA2, FRK/PTK5, EPHA8, LCK, EPHB4, FYN, KHS/MAP4K5, DDR1, EPHA3, P38a/MAPK14, EPHA4, FMS, EPHB1, HCK, FGFR1, ABL2/ARG, EPHA6, c-Src, ACK1, FLT4NEGFR3, ERBB4/HER4, DDR2, KDRNEGFR2, LYN, ZAK/MLTK, YES/YES1, BLK, FGR, MLCK2/MYLK2, TAOK1, BMX/ETK, BTK, EPHA1, JAK1, P38b/MAPK11, TIE2/TEK, FLT1NEGFR1, TXK, SRMS, RAF1, SIK1, MLK3/MAP3K11, PEAK1, TRKA, EPHA7, GLK/MAP4K3, MLK2/MAP3K10, TEC, CSK, TRKC, FES/FPS, SIK2, FGFR3, BRK, YSK4/MAP3K19, ARAF, PDGFRb, TNK1, GCK/MAP4K2, PDGFRa, TNIK, TAK1, ERBB2/HER2, LIMK1, HIPK4, FER, EGFR, JAK2, HPK1/MAP4K1, TRKB, RIPK3, LOK/STK10, LIMK2, MLK1/MAP3K9, BRAF, MEKK3, MEK5, STK32B/YANK2, FGFR4, MEKK2, SLK/STK2, FLT3, PKAcg, TAOK3/JIK, TYRO3/SKY, SIK3, IR, LRRK2, PYK2, NEK11, p70S6K/RPS6KB1, LATS2.

[2] = molecular target: ARAF (Homo sapiens, UniProt P10398)
Description: as §1, §2, §3

[3] = molecular target: BMX/ETK (Homo sapiens, UniProt P51813)
Description: as §1, §2, §3

[4] = molecular target: BRK (Homo sapiens, UniProt Q13882)
Description: as §1, §2, §3

[5] = molecular target: DDR1 (Homo sapiens, UniProt Q08345)
Description: as §1, §2, §3

[6] = molecular target: EPHA5 (Homo sapiens, UniProt P54756)
Description: as §1, §2, §3

[7] = molecular target: EPHA6 (Homo sapiens, UniProt Q9UF33)
Description: as §1, §2, §3

[8] = molecular target: EPHA8 (Homo sapiens, UniProt P29322)
Description: as §1, §2, §3

[9] = molecular target: ERBB2/HER2 (Homo sapiens, UniProt P04626)
Description: as §1, §2, §3

[10] = molecular target: FES/FPS (Homo sapiens, UniProt P07332)
Description: as §1, §2, §3

[11] = molecular target: FRK/PTK5 (Homo sapiens, UniProt P42685)
Description: as §1, §2, §3

[12] = molecular target: FYN (Homo sapiens, UniProt P06241)
Description: as §1, §2, §3

[13] = molecular target: HIPK4 (Homo sapiens, UniProt Q8NE63)
Description: as §1, §2, §3

[14] = molecular target: KHS/MAP4K5 (Homo sapiens, UniProt Q9Y4K4)
Description: as §1, §2, §3

[15] = molecular target: LIMK1 (Homo sapiens, UniProt P53667)
Description: as §1, §2, §3

[16] = molecular target: LOK/STK10 (Homo sapiens, UniProt O94804)
Description: as §1, §2, §3

[17] = molecular target: MEK5 (Homo sapiens, UniProt Q13163)
Description: as §1, §2, §3

[18] = molecular target: MEKK3 (Homo sapiens, UniProt Q99759)
Description: as §1, §2, §3

[19] = molecular target: MLCK2/MYLK2 (Homo sapiens, UniProt Q9H1R3)
Description: as §1, §2, §3

[20] = molecular target: MLK2/MAP3K10 (Homo sapiens, UniProt Q02779)
Description: as §1, §2, §3

[21] = molecular target: RAF1 (Homo sapiens, UniProt P04049)
Description: as §1, §2, §3

[22] = molecular target: RET (Homo sapiens, UniProt P07949)
Description: as §1, §2, §3

[23] = molecular target: RIPK3 (Homo sapiens, UniProt Q9Y572)
Description: as §1, §2, §3

[24] = molecular target: SLK/STK2 (Homo sapiens, UniProt Q9H2G2)
Description: as §1, §2, §3

[25] = molecular target: STK32B/YANK2 (Homo sapiens, UniProt Q9NY57)
Description: as §1, §2, §3

[26] = molecular target: TAK1 (Homo sapiens, UniProt O43318)
Description: as §1, §2, §3

[27] = molecular target: TAOK1 (Homo sapiens, UniProt Q7L7X3)
Description: as §1, §2, §3

[28] = molecular target: TNK1 (Homo sapiens, UniProt Q13470)
Description: as §1, §2, §3

[29] = molecular target: ZAK/MLTK (Homo sapiens, UniProt Q9NYL2)
Description: as §1, §2, §3

[30] = molecular target: c-Src (Homo sapiens, UniProt P12931)
Description: as §1, §2, §3

[31] = molecular target: p70S6K/RPS6KB1 (Homo sapiens, UniProt P23443)
Description: as §1, §2, §3

Sequence of EPHA5 (P54756 25-1037): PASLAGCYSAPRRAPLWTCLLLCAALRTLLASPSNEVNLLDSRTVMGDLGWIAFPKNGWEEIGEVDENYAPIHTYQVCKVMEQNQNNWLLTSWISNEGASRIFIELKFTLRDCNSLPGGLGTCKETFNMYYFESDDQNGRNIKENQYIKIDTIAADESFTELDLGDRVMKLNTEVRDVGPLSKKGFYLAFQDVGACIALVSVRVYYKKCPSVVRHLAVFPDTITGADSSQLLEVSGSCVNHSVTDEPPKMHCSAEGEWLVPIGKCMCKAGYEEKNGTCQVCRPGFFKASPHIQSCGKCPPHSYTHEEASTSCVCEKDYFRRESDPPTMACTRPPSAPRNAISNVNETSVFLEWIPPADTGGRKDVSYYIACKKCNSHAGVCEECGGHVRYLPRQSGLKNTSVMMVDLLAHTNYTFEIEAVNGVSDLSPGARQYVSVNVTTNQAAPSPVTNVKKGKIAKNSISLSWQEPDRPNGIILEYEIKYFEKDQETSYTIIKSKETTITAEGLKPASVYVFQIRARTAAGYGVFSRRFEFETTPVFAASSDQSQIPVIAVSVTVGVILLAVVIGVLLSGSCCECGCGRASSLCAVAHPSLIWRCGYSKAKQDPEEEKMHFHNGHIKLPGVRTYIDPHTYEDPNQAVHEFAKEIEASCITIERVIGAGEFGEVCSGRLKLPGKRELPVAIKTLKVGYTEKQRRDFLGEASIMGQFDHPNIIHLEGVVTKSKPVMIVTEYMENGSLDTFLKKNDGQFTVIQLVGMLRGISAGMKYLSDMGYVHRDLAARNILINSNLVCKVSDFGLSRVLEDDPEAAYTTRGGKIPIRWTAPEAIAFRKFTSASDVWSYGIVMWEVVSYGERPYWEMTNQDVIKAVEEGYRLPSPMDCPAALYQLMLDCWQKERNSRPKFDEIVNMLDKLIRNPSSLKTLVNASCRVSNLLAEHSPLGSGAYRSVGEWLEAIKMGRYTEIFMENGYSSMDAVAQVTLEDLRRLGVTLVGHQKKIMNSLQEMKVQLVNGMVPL
Sequence of TNK1 (Q13470 whole entry): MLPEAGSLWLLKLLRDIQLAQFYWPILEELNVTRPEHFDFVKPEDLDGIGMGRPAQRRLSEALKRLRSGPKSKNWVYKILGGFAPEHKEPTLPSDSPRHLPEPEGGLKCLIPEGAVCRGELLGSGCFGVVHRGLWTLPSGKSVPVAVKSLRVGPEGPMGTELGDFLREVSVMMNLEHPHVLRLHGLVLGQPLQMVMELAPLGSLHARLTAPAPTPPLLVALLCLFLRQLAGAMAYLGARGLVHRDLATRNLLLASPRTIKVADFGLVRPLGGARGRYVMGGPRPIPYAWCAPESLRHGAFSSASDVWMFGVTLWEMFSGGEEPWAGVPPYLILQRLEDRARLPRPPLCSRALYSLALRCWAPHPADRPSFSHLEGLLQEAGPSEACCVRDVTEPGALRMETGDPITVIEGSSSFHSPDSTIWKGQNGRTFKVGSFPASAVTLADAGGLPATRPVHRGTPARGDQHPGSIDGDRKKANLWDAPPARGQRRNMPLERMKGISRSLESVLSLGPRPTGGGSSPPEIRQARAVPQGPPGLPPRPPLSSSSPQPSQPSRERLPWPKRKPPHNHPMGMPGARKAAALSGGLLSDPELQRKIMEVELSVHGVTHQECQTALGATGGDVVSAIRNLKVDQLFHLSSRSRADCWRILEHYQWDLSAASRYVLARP
Sequence of BRK (Q13882 whole entry): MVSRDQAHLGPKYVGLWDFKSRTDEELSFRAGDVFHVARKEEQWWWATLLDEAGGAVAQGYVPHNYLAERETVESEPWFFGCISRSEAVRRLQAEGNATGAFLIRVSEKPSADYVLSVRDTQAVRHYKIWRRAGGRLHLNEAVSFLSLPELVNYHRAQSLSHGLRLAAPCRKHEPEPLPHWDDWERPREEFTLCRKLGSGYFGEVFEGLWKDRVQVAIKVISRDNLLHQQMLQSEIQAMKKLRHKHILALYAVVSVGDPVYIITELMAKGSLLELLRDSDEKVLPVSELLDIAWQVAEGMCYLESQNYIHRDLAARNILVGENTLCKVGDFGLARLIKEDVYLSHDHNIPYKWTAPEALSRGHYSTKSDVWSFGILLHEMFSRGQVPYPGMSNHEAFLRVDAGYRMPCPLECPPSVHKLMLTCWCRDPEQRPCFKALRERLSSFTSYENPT
Sequence of c-Src (P12931 whole entry): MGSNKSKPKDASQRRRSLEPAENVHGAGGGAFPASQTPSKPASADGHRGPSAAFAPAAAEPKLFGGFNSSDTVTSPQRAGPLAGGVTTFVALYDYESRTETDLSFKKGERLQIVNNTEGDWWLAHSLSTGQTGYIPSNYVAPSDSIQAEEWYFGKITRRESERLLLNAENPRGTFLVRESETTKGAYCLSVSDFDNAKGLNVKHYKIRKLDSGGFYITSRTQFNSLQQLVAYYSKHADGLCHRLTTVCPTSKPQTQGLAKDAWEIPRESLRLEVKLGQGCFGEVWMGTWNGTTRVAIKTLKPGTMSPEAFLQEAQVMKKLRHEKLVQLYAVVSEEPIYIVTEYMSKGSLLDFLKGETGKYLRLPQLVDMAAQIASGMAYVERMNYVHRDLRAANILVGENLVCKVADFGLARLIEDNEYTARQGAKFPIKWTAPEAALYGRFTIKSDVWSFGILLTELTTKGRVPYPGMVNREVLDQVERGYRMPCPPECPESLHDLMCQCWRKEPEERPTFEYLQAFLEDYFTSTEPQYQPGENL
Sequence of DDR1 (Q08345 19-913): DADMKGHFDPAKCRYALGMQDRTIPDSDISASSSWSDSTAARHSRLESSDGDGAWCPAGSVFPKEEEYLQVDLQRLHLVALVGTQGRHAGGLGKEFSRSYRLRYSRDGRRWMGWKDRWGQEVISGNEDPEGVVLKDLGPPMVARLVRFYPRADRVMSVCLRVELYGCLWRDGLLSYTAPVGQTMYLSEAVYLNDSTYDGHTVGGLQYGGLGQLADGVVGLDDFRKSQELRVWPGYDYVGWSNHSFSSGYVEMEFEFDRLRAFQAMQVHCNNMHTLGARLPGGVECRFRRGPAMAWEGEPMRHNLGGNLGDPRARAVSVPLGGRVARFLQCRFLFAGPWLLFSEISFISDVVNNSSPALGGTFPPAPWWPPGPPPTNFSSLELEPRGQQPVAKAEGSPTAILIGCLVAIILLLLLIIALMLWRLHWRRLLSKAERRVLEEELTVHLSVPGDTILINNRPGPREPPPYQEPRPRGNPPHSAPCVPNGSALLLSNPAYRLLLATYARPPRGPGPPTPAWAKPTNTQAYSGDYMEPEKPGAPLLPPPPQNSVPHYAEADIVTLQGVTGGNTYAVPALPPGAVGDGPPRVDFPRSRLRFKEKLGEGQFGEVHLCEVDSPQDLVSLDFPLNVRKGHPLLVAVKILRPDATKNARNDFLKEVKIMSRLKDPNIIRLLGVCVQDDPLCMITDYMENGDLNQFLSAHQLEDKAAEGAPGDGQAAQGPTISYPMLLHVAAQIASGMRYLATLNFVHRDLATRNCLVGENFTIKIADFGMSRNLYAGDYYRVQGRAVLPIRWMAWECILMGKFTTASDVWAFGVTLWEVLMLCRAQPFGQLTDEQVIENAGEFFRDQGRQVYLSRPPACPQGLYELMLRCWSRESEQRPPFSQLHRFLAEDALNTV
Sequence of RIPK3 (Q9Y572 whole entry): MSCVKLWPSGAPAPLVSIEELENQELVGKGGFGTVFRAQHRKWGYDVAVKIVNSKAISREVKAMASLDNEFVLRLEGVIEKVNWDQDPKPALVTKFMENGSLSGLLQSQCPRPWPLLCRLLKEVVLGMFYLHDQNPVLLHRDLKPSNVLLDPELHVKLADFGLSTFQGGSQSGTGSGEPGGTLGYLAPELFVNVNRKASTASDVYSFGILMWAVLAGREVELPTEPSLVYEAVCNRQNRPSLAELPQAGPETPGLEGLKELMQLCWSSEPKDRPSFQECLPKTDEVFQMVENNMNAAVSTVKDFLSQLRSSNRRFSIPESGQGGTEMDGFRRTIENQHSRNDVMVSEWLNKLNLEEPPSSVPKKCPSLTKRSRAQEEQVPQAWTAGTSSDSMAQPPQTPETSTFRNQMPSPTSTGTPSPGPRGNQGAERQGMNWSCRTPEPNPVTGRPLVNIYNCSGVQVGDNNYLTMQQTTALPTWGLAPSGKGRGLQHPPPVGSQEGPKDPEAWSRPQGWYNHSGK
Sequence of KHS/MAP4K5 (Q9Y4K4 whole entry): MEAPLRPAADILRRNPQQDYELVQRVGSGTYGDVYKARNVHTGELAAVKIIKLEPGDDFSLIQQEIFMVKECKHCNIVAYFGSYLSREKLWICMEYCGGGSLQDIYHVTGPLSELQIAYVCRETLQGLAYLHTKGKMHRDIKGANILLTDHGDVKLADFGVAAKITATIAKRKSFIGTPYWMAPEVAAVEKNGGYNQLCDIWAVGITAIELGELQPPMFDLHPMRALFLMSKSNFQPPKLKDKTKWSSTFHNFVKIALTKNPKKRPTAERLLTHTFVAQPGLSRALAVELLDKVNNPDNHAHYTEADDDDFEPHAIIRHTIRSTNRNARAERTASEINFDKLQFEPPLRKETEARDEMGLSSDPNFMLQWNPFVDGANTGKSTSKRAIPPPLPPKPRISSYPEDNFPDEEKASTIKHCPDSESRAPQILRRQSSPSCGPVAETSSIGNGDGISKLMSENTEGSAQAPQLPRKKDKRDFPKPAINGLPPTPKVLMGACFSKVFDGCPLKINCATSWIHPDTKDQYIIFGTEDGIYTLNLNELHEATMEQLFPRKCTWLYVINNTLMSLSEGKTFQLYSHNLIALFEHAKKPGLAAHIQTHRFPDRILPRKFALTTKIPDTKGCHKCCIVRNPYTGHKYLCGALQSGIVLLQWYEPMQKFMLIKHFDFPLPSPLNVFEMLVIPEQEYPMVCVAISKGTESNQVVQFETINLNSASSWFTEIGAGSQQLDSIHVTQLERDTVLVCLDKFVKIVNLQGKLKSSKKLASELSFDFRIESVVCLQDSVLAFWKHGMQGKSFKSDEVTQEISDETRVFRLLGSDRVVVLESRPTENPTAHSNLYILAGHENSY

- remaining activity at 1 µM [1]: ≤ 30%
- remaining activity at 1 µM [2]: ≤ 30%
- remaining activity at 1 µM [3]: ≤ 30%
- remaining activity at 1 µM [4]: ≤ 30%
- remaining activity at 1 µM [5]: ≤ 30%
- remaining activity at 1 µM [6]: ≤ 30%
- remaining activity at 1 µM [7]: ≤ 30%
- remaining activity at 1 µM [8]: ≤ 30%
- remaining activity at 1 µM [9]: ≤ 30%
- remaining activity at 1 µM [10]: ≤ 30%
- remaining activity at 1 µM [11]: ≤ 30%
- remaining activity at 1 µM [12]: ≤ 30%
- remaining activity at 1 µM [13]: ≤ 30%
- remaining activity at 1 µM [14]: ≤ 30%
- remaining activity at 1 µM [15]: ≤ 30%
- remaining activity at 1 µM [16]: ≤ 30%
- remaining activity at 1 µM [17]: ≤ 30%
- remaining activity at 1 µM [18]: ≤ 30%
- remaining activity at 1 µM [19]: ≤ 30%
- remaining activity at 1 µM [20]: ≤ 30%
- remaining activity at 1 µM [21]: ≤ 30%
- remaining activity at 1 µM [22]: ≤ 30%
- remaining activity at 1 µM [23]: ≤ 30%
- remaining activity at 1 µM [24]: ≤ 30%
- remaining activity at 1 µM [25]: ≤ 30%
- remaining activity at 1 µM [26]: ≤ 30%
- remaining activity at 1 µM [27]: ≤ 30%
- remaining activity at 1 µM [28]: ≤ 30%
- remaining activity at 1 µM [29]: ≤ 30%
- remaining activity at 1 µM [30]: ≤ 30%
- remaining activity at 1 µM [31]: ≤ 30%
SMILES: CCN1CCN(C(=O)c2ccc(Nc3ncc4c(n3)N(C)C(=O)N(c3cc(NC(=O)Nc5ccccc5OC)ccc3C)C4)cn2)CC1 [Compound No. 14, 1-(3-(7-((6-(4-ethylpiperazin-1-carbonyl)pyridin-3-yl)amino)-1-methyl-2-oxo-1,4-dihydropyrimido[4,5-d]pyrimidin-3(2H)-yl)-4-methylphenyl)-3-(2-methoxyphenyl)urea]
